Assay results taken from patent US10370370B2, “Aminobenzisoxazole compounds as agonists of α7-nicotinic acetylcholine receptors” (FORUM PHARMACEUTICALS, INC., priority 2015, dated 2019).
Where a name gives a salt, the structure may show the parent alone.

Biological target: human α7 nAChR (Homo sapiens (Human), UniProt P36544)
Experiment: not given
Assay type: binding
Details: above described assay provided by Cerep

Chain of human α7 nAChR (P36544 23-502 limits assumed): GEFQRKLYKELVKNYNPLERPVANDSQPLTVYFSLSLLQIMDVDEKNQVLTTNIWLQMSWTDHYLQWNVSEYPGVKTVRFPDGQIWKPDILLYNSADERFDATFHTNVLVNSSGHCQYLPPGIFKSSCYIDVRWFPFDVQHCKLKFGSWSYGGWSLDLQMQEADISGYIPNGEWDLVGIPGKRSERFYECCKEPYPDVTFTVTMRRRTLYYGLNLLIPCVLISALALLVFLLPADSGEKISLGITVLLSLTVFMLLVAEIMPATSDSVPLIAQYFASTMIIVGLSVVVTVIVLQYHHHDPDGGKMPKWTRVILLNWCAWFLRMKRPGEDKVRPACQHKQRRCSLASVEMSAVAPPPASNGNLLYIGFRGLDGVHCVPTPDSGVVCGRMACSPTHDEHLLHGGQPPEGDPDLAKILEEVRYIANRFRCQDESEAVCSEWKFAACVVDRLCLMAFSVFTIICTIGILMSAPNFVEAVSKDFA

Question: With `Cc1ccc(-c2ccc(OC3CN4CCC3CC4)cn2)cc1` (stereo not shown) [AQW051] as the molecule, how does the Ki read?
Answer: Its Ki is 255 nM.

Biological target: human 5-HT3 serotonin receptors (Homo sapiens (Human), UniProt P46098)
Sequence (P46098 24-478): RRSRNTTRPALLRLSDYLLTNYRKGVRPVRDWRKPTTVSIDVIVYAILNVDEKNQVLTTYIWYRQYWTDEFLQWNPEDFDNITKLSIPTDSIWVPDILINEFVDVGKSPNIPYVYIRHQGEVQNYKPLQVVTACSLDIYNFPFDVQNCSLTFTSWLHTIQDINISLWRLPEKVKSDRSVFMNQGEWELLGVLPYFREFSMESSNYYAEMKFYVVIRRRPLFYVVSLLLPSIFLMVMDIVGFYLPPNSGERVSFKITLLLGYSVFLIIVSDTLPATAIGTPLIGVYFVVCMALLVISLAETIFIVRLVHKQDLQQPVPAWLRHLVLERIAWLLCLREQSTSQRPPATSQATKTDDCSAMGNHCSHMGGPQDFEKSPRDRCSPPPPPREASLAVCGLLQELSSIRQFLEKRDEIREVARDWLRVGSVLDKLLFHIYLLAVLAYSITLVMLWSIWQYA
Experiment: [3H]BRL 43694 competition binding (Cerep)
Details: CHO cell membranes expressing human 5-HT3 receptors

Question: With `Cc1c(Cl)ccc2c(N[C@H]3CN4CCC3CC4)noc12` [Compound (R)-23, (R)-6-chloro-7-methyl-N-(quinuclidin-3-yl)benzo[d]isoxazol-3-amine hydrochloride] as the molecule, how does the Ki read?
Answer: The Ki was 190 nM.

Biological target: human α7 nAChRs transiently expressed in Xenopus laevis oocytes (Homo sapiens (Human), UniProt P36544)
Sequence (P36544 23-502 limits assumed): as the sequence (P36544 23-502 limits assumed) above
Experiment: Oocyte Electrophysiology Screen (two-electrode voltage-clamp, HiQScreen)
Assay type: cell-based
Details: test compound at 0.01 mM, response as percentage of that evoked by 0.2 mM ACh; hydrochloride
Protocol: Oocyte Electrophysiology Screen (% ACh @ 10 μM Oocyte)
The Oocyte Electrophysiology Screen studies were performed under contract by HiQScreen Geneva, Switzerland. All experiments were carried out at human α7 nAChRs transiently expressed in Xenopus laevis oocytes using the method of cDNA expression. Currents evoked by acetylcholine or other agonist ligands were recorded using the standard two-electrode voltage-clamp configuration (TEVC). X. laevis oocytes were prepared and injected using standard procedures. Briefly, ovaries were harvested from X. laevis females that were deeply anesthetized and pithed following the animal rights rule from the Geneva canton. A small piece of ovary was isolated for immediate preparation while the remaining part was placed at 4° C. in a sterile Barth solution containing in mM: NaCl 88, KCl 1, NaHCO3 2.4, HEPES 10, MgSO4.7H2O 0.82, Ca(NO3)2.4H2O 0.33, CaCl2.6H2O 0.41, at pH 7.4, and supplemented with 20 μg/mL of kanamycin, 100 unit/mL penicillin and 100 μg/mL streptomycin. On the second day following dissociation, oocytes were injected with 2 ng of cDNA per oocyte containing the gene encoding human α7 nicotinic acetylcholine receptor subunits using an automated injector (Hogg et al., 2008). All recordings were performed at 18° C. and cells were superfused with OR2 medium containing in mM: NaCl 82.5, KCl 2.5, HEPES 5, CaCl2.2H2O 2.5, pH 7.4. Cells were held at −80 mV. Data were filtered at 10 Hz, captured at 100 Hz and analyzed using proprietary data acquisition and analysis software running under Matlab (Mathworks Inc.).
Experimental Protocol and Analysis
After establishing a baseline transmembrane current, acetylcholine (ACh) was applied for 5 seconds at a concentration of 0.2 mM to establish a control ACh-evoked current response. Following a wash period of 90 s in OR2 medium (free of ACh), cells were then exposed for 30 s to the test compound applied at 0.01 mM. The same reference ACh test pulse was immediately given at the end of the compound exposure and again after 90 s of recovery in OR2 Medium (free of ACh or test compound). All data were determined in triplicate. The response evoked by the test compound was expressed as a percentage of that evoked by ACh: Response (% ACh)=100×(Itest/IACh) where Itest is the peak inward current measured during exposure to 0.01 mM of test compound and IACh is the peak inward current measured in the presence of ACh.
Results are provided in Table 2 (reported as % ACh @ 10 μM Oocyte).

Question: With `c1ccc2c(NC3CN4CCC3CC4)noc2c1` (single isomer, unassigned; enantiomer1) [Compound 1-P1] as the molecule, how does the “% ACh @ 10 μM Oocyte” value read?
Answer: The value was 483 % ACh.

Question: With `Clc1cccc2c(NC3CN4CCC3CC4)noc12` (single isomer, unassigned; enantiomer1) [Compound 2-P1, 7-chloro-N-(quinuclidin-3-yl)benzo[d]isoxazol-3-amine-enantiomer1 hydrochloride] as the molecule, how does the “% ACh @ 10 μM Oocyte” value read?
Answer: Its value is 418 % ACh.

Question: For `Clc1ccc2c(NC3CN4CCC3CC4)noc2c1` (single isomer, unassigned; enantiomer1) [Compound 3-P1, 6-chloro-N-(quinuclidin-3-yl)benzo[d]isoxazol-3-amine-enantiomer1 hydrochloride], which “% ACh @ 10 μM Oocyte” value is on record?
Answer: Its value is 465 % ACh.

Question: Which “% ACh @ 10 μM Oocyte” value does the source give for `Clc1ccc2onc(NC3CN4CCC3CC4)c2c1` (single isomer, unassigned; enantiomer1) [Compound 4-P1, 5-chloro-N-(quinuclidin-3-yl)benzo[d]isoxazol-3-amine-enantiomer1 hydrochloride] here?
Answer: Its value is 326 % ACh.

Question: Which “% ACh @ 10 μM Oocyte” value does the source give for `Cc1ccc2c(NC3CN4CCC3CC4)noc2c1` (single isomer, unassigned; enantiomer1) [Compound 5-P1, 6-methyl-N-(quinuclidin-3-yl)benzo[d]isoxazol-3-amine-enantiomer1 hydrochloride] here?
Answer: Its value is 548 % ACh.

Question: For `c1cc2c(NC3CN4CCC3CC4)noc2cc1C1CC1` (single isomer, unassigned; enantiomer1) [Compound 6-P1, 6-cyclopropyl-N-(quinuclidin-3-yl)benzo[d]isoxazol-3-amine-enantiomer1 hydrochloride], which “% ACh @ 10 μM Oocyte” value is on record?
Answer: Its value is 157 % ACh.

Question: For `COc1ccc2c(NC3CN4CCC3CC4)noc2c1` (single isomer, unassigned; enantiomer1) [Compound 7-P1, 6-methoxy-N-(quinuclidin-3-yl)benzo[d]isoxazol-3-amine-enantiomer1 hydrochloride], which “% ACh @ 10 μM Oocyte” value is on record?
Answer: Its value is 326 % ACh.

Question: For `FC(F)(F)c1ccc2c(NC3CN4CCC3CC4)noc2c1` (single isomer, unassigned; enantiomer1) [Compound 8-P1, N-(quinuclidin-3-yl)-6-(trifluoromethyl)benzo[d]isoxazol-3-amine-enantiomer1 hydrochloride], which “% ACh @ 10 μM Oocyte” value is on record?
Answer: Its value is 26 % ACh.

Question: Which “% ACh @ 10 μM Oocyte” value does the source give for `c1ccc2c(NC3CN4CCC3CC4)noc2c1` (single isomer, unassigned; enantiomer2) [Compound 1-P2, N-(quinuclidin-3-yl)benzo[d]isoxazol-3-amine-enantiomer2 hydrochloride] here?
Answer: The value was 206 % ACh.

Question: Which “% ACh @ 10 μM Oocyte” value does the source give for `Clc1cccc2c(NC3CN4CCC3CC4)noc12` (single isomer, unassigned; enantiomer2) [Compound 2-P2, 7-chloro-N-(quinuclidin-3-yl)benzo[d]isoxazol-3-amine-enantiomer2 hydrochloride] here?
Answer: The value was 363 % ACh.

Question: With `Clc1ccc2c(NC3CN4CCC3CC4)noc2c1` (single isomer, unassigned; enantiomer2) [Compound 3-P2, 6-chloro-N-(quinuclidin-3-yl)benzo[d]isoxazol-3-amine-enantiomer2 hydrochloride] as the molecule, how does the “% ACh @ 10 μM Oocyte” value read?
Answer: The value was 379 % ACh.

Question: With `Clc1ccc2onc(NC3CN4CCC3CC4)c2c1` (single isomer, unassigned; enantiomer2) [Compound 4-P2, 5-chloro-N-(quinuclidin-3-yl)benzo[d]isoxazol-3-amine-enantiomer2 hydrochloride] as the molecule, how does the “% ACh @ 10 μM Oocyte” value read?
Answer: The value was 17 % ACh.

Question: For `Cc1ccc2c(NC3CN4CCC3CC4)noc2c1` (single isomer, unassigned; enantiomer2) [Compound 5-P2, 6-methyl-N-(quinuclidin-3-yl)benzo[d]isoxazol-3-amine-enantiomer2 hydrochloride], which “% ACh @ 10 μM Oocyte” value is on record?
Answer: Its value is 645 % ACh.

Question: Which “% ACh @ 10 μM Oocyte” value does the source give for `c1cc2c(NC3CN4CCC3CC4)noc2cc1C1CC1` (single isomer, unassigned; enantiomer2) [Compound 6-P2, 6-cyclopropyl-N-(quinuclidin-3-yl)benzo[d]isoxazol-3-amine-enantiomer2 hydrochloride] here?
Answer: The value was 355 % ACh.

Question: With `COc1ccc2c(NC3CN4CCC3CC4)noc2c1` (single isomer, unassigned; enantiomer2) [Compound 7-P2, 6-methoxy-N-(quinuclidin-3-yl)benzo[d]isoxazol-3-amine-enantiomer2 hydrochloride] as the molecule, how does the “% ACh @ 10 μM Oocyte” value read?
Answer: The value was 427 % ACh.

Question: For `FC(F)(F)c1ccc2c(NC3CN4CCC3CC4)noc2c1` (single isomer, unassigned; enantiomer2) [Compound 8-P2, N-(quinuclidin-3-yl)-6-(trifluoromethyl)benzo[d]isoxazol-3-amine-enantiomer2 hydrochloride], which “% ACh @ 10 μM Oocyte” value is on record?
Answer: The value was 221 % ACh.

Biological target: recombinantly expressed human α7-nAChR (Homo sapiens (Human), UniProt P36544)
Sequence (P36544 23-502 limits assumed): as above
Experiment: not given
Details: [125I] α-BTX radioligand, read-out: Ki (lit); cited from earlier work

Question: For `Cc1ccc(-c2ccc(OC3CN4CCC3CC4)cn2)cc1` (stereo not shown) [AQW051], which Ki is on record?
Answer: The Ki was 28 nM.
